{
  "source": "paper PMC4767259",
  "about": "(Journal of nuclear medicine : official publication, Society …, 2015)",
  "key": {"[1]": {"test_system": "leg muscles (lateral gastrocnemius) and systemic muscles (spinotrapezius)", "assay": "18F-FDG uptake PET imaging of muscles, SUV time-activity curve slope analysis", "format": "in vivo, CD IGS rats", "details": "SF group: insulin 3.39-48.48 IU/kg into tail vein, n = 3, mean ± SD"}, "[2]": {"details": "intraarterial (left femoral artery) intervention, insulin 0.34-0.38 IU/kg, rats"}},
  "data": [
    {"substance": "Insulin", "values": [
      {"measurement": "baseline of the 18F-FDG uptake SUVs", "setting": "[1]", "result": "0.7547 ± 0.1208"},
      {"measurement": "Adverse events", "setting": "[2]", "result": "No adverse events were observed"}
    ]}
  ]
}
